Data set [1] has as its target NaV1.6 (Homo sapiens (Human), UniProt Q9UQD0). Briefly: Sodium Influx Assay (Flux), NaV1.6. Conditions: read-out: Flux NaV1.6 IC50; Trex HEK293 cells, ANG2 dye; arithmetic mean.
Data set [2] addresses NaV1.1 (Homo sapiens (Human), UniProt P35498). Briefly: Sodium Influx Assay (Flux), NaV1.1. The class given is cell-based. Conditions: Trex HEK293 cells, ANG2 dye; arithmetic mean.
Data set [3] addresses NaV1.5 (Homo sapiens (Human), UniProt Q14524). Briefly: Sodium Influx Assay (Flux), NaV1.5. Particulars: read-out: Flux NaV1.5 IC50; Trex HEK293 cells, ANG2 dye; arithmetic mean.

pIC50: −log10 of the molar value.

This is an account of results in patent US10246453B2, “Benzenesulfonamide compounds and their use as therapeutic agents” (Xenon Pharmaceuticals Inc., priority 2016, dated 2019).

Chain of NaV1.5 (Q14524 other isoform, or with tags, fused parts or gaps): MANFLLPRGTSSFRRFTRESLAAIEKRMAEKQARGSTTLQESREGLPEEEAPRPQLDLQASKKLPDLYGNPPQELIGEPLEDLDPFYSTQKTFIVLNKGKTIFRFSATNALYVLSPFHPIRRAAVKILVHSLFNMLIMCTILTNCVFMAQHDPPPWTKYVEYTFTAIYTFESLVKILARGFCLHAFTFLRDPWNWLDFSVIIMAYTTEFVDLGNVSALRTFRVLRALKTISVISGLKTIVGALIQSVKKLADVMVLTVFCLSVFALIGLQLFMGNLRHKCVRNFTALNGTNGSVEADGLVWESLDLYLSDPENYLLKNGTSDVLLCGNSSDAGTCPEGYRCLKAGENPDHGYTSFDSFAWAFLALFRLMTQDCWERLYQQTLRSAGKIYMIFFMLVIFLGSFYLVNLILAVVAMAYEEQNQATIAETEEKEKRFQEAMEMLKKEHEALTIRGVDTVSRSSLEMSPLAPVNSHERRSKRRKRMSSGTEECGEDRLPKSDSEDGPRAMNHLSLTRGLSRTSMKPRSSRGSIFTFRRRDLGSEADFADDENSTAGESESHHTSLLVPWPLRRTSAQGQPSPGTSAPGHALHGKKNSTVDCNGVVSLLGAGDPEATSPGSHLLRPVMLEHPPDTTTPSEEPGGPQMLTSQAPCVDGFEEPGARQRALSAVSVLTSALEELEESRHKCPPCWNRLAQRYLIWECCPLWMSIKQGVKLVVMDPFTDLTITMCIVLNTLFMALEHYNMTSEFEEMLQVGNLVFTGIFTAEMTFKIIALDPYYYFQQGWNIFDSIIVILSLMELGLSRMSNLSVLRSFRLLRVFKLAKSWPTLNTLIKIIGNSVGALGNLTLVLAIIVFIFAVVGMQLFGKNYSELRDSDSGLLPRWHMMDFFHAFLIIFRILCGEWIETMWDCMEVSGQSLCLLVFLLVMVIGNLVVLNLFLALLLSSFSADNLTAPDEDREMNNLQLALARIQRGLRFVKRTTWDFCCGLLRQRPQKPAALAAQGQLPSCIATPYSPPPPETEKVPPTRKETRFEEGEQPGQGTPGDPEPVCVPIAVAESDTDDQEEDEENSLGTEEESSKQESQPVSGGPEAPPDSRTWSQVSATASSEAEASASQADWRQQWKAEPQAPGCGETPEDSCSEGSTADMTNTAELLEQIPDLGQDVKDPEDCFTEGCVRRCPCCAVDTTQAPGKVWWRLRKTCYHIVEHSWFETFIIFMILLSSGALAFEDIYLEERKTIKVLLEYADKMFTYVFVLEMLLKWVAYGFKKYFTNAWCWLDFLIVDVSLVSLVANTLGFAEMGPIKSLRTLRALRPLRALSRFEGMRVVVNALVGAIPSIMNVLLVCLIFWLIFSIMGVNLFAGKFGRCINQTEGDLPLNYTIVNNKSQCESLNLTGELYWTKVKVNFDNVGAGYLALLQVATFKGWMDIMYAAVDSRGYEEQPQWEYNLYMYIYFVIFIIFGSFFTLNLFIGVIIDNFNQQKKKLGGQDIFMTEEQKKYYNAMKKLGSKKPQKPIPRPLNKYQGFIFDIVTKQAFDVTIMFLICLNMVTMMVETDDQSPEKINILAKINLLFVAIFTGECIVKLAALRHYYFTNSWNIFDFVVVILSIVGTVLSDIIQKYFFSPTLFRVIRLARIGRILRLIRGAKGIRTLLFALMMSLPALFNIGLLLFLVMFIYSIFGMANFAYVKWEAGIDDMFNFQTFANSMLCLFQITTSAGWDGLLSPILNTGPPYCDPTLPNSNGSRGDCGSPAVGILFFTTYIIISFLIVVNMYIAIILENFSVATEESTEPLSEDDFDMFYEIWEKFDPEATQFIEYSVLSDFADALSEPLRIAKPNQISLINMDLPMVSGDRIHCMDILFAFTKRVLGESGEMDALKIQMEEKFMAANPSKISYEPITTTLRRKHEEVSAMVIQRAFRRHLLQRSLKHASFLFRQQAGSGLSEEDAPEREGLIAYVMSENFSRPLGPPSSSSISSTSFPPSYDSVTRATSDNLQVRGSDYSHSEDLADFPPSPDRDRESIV

On to `CN(c1cc(F)c(S(=O)(=O)Nc2cscn2)cc1Cl)[C@H]1CCN(Cc2cccc3ccncc23)C1` [Example 186, (S)-5-chloro-2-fluoro-4-((1-(isoquinolin-8-ylmethyl)pyrrolidin-3-yl)(methyl)amino)-N-(thiazol-4-yl)benzene-sulfonamide 2,2,2-trifluoroacetate], for which the results for the pIC50 in data set [1], in data set [2] and in data set [3] were 5.48, 4.72 and 4.70, respectively.
With `CN(c1cc(F)c(S(=O)(=O)Nc2cscn2)cc1Cl)[C@H]1CCN(Cc2cccc(C(F)(F)F)n2)C1` [Example 187, (S)-5-chloro-2-fluoro-4-(methyl(1-((6-(trifluoromethyl)-pyridin-2-yl)methyl)pyrrolidin-3-yl)amino)-N-(thiazol-4-yl)benzene-sulfonamide], the pIC50 – broadly, the negative decadic logarithm of the IC50, by convention in mol/L – was 6.00 in data set [1], 4.76 in data set [2] and 4.60 in data set [3].
The matching figures for `CN(c1cc(F)c(S(=O)(=O)Nc2cscn2)cc1Cl)[C@H]1CCN(Cc2ccc(Cl)cc2)C1` [Example 188, (S)-5-chloro-4-((1-(4-chlorobenzyl)-pyrrolidin-3-yl)(methyl)amino)-2-fluoro-N-(thiazol-4-yl)benzene-sulfonamide]: 5.38, 5.49 and 5.08.
Regarding `Cc1cccc(CN2CC[C@H](N(C)c3cc(F)c(S(=O)(=O)Nc4cscn4)cc3Cl)C2)c1F` [Example 191, (S)-5-chloro-2-fluoro-4-((1-(2-fluoro-3-methylbenzyl)-pyrrolidin-3-yl)(methyl)amino)-N-(thiazol-4-yl)benzene-sulfonamide], the results for the pIC50 in data set [1], in data set [2] and in data set [3] were 6.23, 5.05 and 5.09, respectively.
Take `COc1cccc(CN2CC[C@H](N(C)c3cc(F)c(S(=O)(=O)Nc4cscn4)cc3Cl)C2)n1` [Example 194, (S)-5-chloro-2-fluoro-4-((1-((6-methoxypyridin-2-yl)methyl)pyrrolidin-3-yl)(methyl)amino)-N-(thiazol-4-yl)benzene-sulfonamide]: the results for the pIC50 in data set [1], in data set [2] and in data set [3] were 5.50, 4.53 and 4.63, respectively.
For `CN(c1cc(F)c(S(=O)(=O)Nc2cscn2)cc1Cl)[C@H]1CCN(Cc2cc(Cl)ccc2F)C1` [Example 195, (S)-5-chloro-4-((1-(5-chloro-2-fluorobenzyl)pyrrolidin-3-yl)(methyl)amino)-2-fluoro-N-(thiazol-4-yl)benzenesulfonamide], in that order: 5.83, 5.29 and 5.42.
Turning to `CN(c1cc(F)c(S(=O)(=O)Nc2cscn2)cc1Cl)[C@H]1CCN(CCCc2ccccc2)C1` [Example 196, (S)-5-chloro-2-fluoro-4-(methyl(1-(3-phenylpropyl)pyrrolidin-3-yl)amino)-N-(thiazol-4-yl)benzenesulfonamide], the pIC50 in data set [1] was 5.90; in data set [2], 5.73; in data set [3] it was 5.09.
For the compound `CN(c1cc(F)c(S(=O)(=O)Nc2cscn2)cc1Cl)[C@H]1CCN(Cc2cc(Cl)ccc2Cl)C1` [Example 197, (S)-5-chloro-4-((1-(2,5-dichlorobenzyl)pyrrolidin-3-yl)(methyl)amino)-2-fluoro-N-(thiazol-4-yl)benzenesulfonamide], the pIC50 was 5.48 in data set [1], 5.28 in data set [2] and 5.50 in data set [3].
As for `CN(c1cc(F)c(S(=O)(=O)Nc2cscn2)cc1Cl)[C@H]1CCN(Cc2ccccc2Cl)C1` [Example 198, (S)-5-chloro-4-((1-(2-chlorobenzyl)pyrrolidin-3-yl)(methyl)amino)-2-fluoro-N-(thiazol-4-yl)benzenesulfonamide], the results for the pIC50 in data set [1], in data set [2] and in data set [3] were 5.84, 5.27 and 5.33, respectively.
With `CN(C)c1ccc(CN2CC[C@H](N(C)c3cc(F)c(S(=O)(=O)Nc4cscn4)cc3Cl)C2)cc1` [Example 199, (S)-5-chloro-4-((1-(4-(dimethylamino)benzyl)pyrrolidin-3-yl)(methyl)amino)-2-fluoro-N-(thiazol-4-yl)benzenesulfonamide], the pIC50 was 5.07 in data set [1], 5.10 in data set [2] and under 4.52 in data set [3].
For `CN(c1cc(F)c(S(=O)(=O)Nc2cscn2)cc1Cl)[C@H]1CCN(CCOCc2ccccc2)C1` [Example 200, (S)-4-((1-(2-(benzyloxy)ethyl)pyrrolidin-3-yl)(methyl)amino)-5-chloro-2-fluoro-N-(thiazol-4-yl)benzenesulfonamide], the pIC50 in data set [1] was 5.33; in data set [2], 5.30; in data set [3], 5.14.
As to `Cc1ccc(CN2CC[C@H](N(C)c3cc(F)c(S(=O)(=O)Nc4cscn4)cc3Cl)C2)cc1` [Example 201, (S)-5-chloro-2-fluoro-4-(methyl(1-(4-methylbenzyl)pyrrolidin-3-yl)amino)-N-(thiazol-4-yl)benzenesulfonamide], the pIC50 was 5.48 in data set [1], 5.24 in data set [2] and 4.82 in data set [3].
The matching figures for `CN(c1cc(F)c(S(=O)(=O)Nc2cscn2)cc1Cl)[C@H]1CCN(Cc2ccc[nH]2)C1` [Example 202, (S)-4-((1-((1H-pyrrol-2-yl)methyl)pyrrolidin-3-yl)(methyl)amino)-5-chloro-2-fluoro-N-(thiazol-4-yl)benzenesulfonamide]: 5.36, 4.60 and under 4.52.
Take `Cc1cccc(C)c1CN1CC[C@H](N(C)c2cc(F)c(S(=O)(=O)Nc3cscn3)cc2Cl)C1` [Example 203, (S)-5-chloro-4-((1-(2,6-dimethylbenzyl)pyrrolidin-3-yl)(methyl)amino)-2-fluoro-N-(thiazol-4-yl)benzenesulfonamide]: the pIC50 is 5.38 in data set [1], 5.24 in data set [2] and 5.17 in data set [3].
For the compound `Cc1ccc(CN2CC[C@H](N(C)c3cc(F)c(S(=O)(=O)Nc4cscn4)cc3Cl)C2)o1` [Example 204, (S)-5-chloro-2-fluoro-4-(methyl(1-((5-methylfuran-2-yl)methyl)pyrrolidin-3-yl)amino)-N-(thiazol-4-yl)benzenesulfonamide], the pIC50 in data set [1] is 5.75; in data set [2], under 4.52; in data set [3] it was under 4.52.
For `CN(c1cc(F)c(S(=O)(=O)Nc2cscn2)cc1Cl)[C@H]1CCN(Cc2cccc(Cl)c2F)C1` [Example 205, (S)-5-chloro-4-((1-(3-chloro-2-fluorobenzyl)pyrrolidin-3-yl)(methyl)amino)-2-fluoro-N-(thiazol-4-yl)benzenesulfonamide], the pIC50 in data set [1] is 5.94; in data set [2], 4.99; in data set [3] it was 5.10.
The matching figures for `CN(c1cc(F)c(S(=O)(=O)Nc2cscn2)cc1Cl)[C@H]1CCN(Cc2cc(F)ccc2F)C1` [Example 207, (S)-5-chloro-4-((1-(2,5-difluorobenzyl)pyrrolidin-3-yl)(methyl)amino)-2-fluoro-N-(thiazol-4-yl)benzenesulfonamide]: 5.86, 5.14 and 5.13.
For `CN(c1cc(F)c(S(=O)(=O)Nc2cscn2)cc1Cl)[C@H]1CCN(Cc2cccc(Cl)c2)C1` [Example 208, (S)-5-chloro-4-((1-(3-chlorobenzyl)pyrrolidin-3-yl)(methyl)amino)-2-fluoro-N-(thiazol-4-yl)benzenesulfonamide], in that order: 5.96, 5.36 and 5.24.
Regarding `CN(c1cc(F)c(S(=O)(=O)Nc2cscn2)cc1Cl)[C@H]1CCN(Cc2ccccc2O)C1` [Example 209, (S)-5-chloro-2-fluoro-4-((1-(2-hydroxybenzyl)pyrrolidin-3-yl)(methyl)amino)-N-(thiazol-4-yl)benzenesulfonamide], the pIC50 in data set [1] was 5.67; in data set [2], 4.70; in data set [3], 4.69.
For the compound `CN(c1cc(F)c(S(=O)(=O)Nc2cscn2)cc1Cl)[C@H]1CCN(Cc2ccccc2OC(F)F)C1` [Example 210, (S)-5-chloro-4-((1-(2-(difluoromethoxy)benzyl)pyrrolidin-3-yl)(methyl)amino)-2-fluoro-N-(thiazol-4-yl)benzenesulfonamide], the pIC50 in data set [1] is 5.90; in data set [2] it was 5.15; in data set [3] it was 5.08.
Turning to `Cc1cc(CN2CC[C@H](N(C)c3cc(F)c(S(=O)(=O)Nc4cscn4)cc3Cl)C2)ccc1F` [Example 211, (S)-5-chloro-2-fluoro-4-((1-(4-fluoro-3-methylbenzyl)pyrrolidin-3-yl)(methyl)amino)-N-(thiazol-4-yl)benzenesulfonamide], the negative logarithm of the IC50 (pIC50) in data set [1] is 5.54; in data set [2], 5.30; in data set [3], 5.11.
Turning to `CN(c1cc(F)c(S(=O)(=O)Nc2cscn2)cc1Cl)[C@H]1CCN(Cc2cccc(F)c2)C1` [Example 212, (S)-5-chloro-2-fluoro-4-((1-(3-fluorobenzyl)pyrrolidin-3-yl)(methyl)amino)-N-(thiazol-4-yl)benzenesulfonamide], the pIC50 was 5.67 in data set [1], 4.98 in data set [2] and 4.72 in data set [3].
For the compound `CN(c1cc(F)c(S(=O)(=O)Nc2cscn2)cc1Cl)[C@H]1CCN(Cc2cccc(F)c2F)C1` [Example 213, (S)-5-chloro-4-((1-(2,3-difluorobenzyl)pyrrolidin-3-yl)(methyl)amino)-2-fluoro-N-(thiazol-4-yl)benzenesulfonamide], the negative logarithm of the IC50 (pIC50) was 5.46 in data set [1], 4.79 in data set [2] and 4.89 in data set [3].
The matching figures for `CN(c1cc(F)c(S(=O)(=O)Nc2cscn2)cc1Cl)[C@H]1CCN(Cc2cccc(C(F)(F)F)c2)C1` [Example 214, (S)-5-chloro-2-fluoro-4-(methyl(1-(3-(trifluoromethyl)benzyl)pyrrolidin-3-yl)amino)-N-(thiazol-4-yl)benzenesulfonamide]: 5.75, 5.53 and 5.26.
